Experimental data: the NIST ThermoML archive (doi:10.1021/je2000827)

Details: Liquid; for vapor or sublimation pressure: Closed cell (Static) method

FC(F)Cl [chlorodifluoromethane]
Details | mass density [kg/m3] | vapor or sublimation pressure [kPa]
237.03 K | 1396.88 | 125.48
242.05 K | 1380.58 | 156.52
248.23 K | 1361.7 | 202.41
250.79 K | 1352.02 | 223.86
257.12 K | 1333.18 | 285.6
262.27 K | 1317.65 | 343.76
267.03 K | 1302.17 | 405.65
272.37 K | 1283.62 | 485.71
276.67 K | 1268.86 | 558.12
283.21 K | 1244.97 | 682.58
287.52 K | 1231.04 | 774.37
294.06 K | 1206.17 | 932.29
298.34 K | 1188.92 | 1047.7
303.44 K | 1168.12 | 1201.9
306.98 K | 1156.73 | 1316.4

CCF [fluoroethane]
Details | mass density [kg/m3] | vapor or sublimation pressure [kPa]
231.49 K | 822.41 | 83.13
234.21 K | 817.05 | 94.43
236.99 K | 812.28 | 107.29
239.38 K | 807.75 | 119.32
242.26 K | 802.85 | 135.31
244.45 K | 798.89 | 148.5
247.17 K | 794.45 | 166.36
249.55 K | 790.12 | 183.2
252.04 K | 784.97 | 202.06
254.66 K | 781.18 | 223.94
256.86 K | 777.42 | 243.51
259.79 K | 772.38 | 271.62
261.53 K | 769.17 | 289.32
264.92 K | 762.96 | 326.52
267.46 K | 758.21 | 356.63
270.02 K | 753.26 | 389.01
272.57 K | 748.47 | 423.54
275.14 K | 743.66 | 460.69
277.69 K | 738.45 | 499.68
280.25 K | 734.48 | 542.23
282.93 K | 728.08 | 587.98
285.36 K | 724.27 | 633.63
288.87 K | 715.99 | 701.87
290.5 K | 713.52 | 736.6
293.49 K | 706.47 | 801.35
296.62 K | 699.98 | 874.83
298.35 K | 696.18 | 917.13
301.4 K | 689.76 | 996.4
303.42 K | 685.09 | 1051
305.56 K | 680.24 | 1111.4
308.36 K | 673.98 | 1195.1
311.02 K | 667.87 | 1278.7
313.56 K | 661.98 | 1362.7
316.06 K | 655.89 | 1439.2
318.06 K | 650.99 | 1511.1
320.34 K | 645.22 | 1596.5
322.83 K | 638.81 | 1683.8
325.41 K | 632.16 | 1800.8
328.04 K | 625.04 | 1922.5
330.58 K | 617.82 | 2035.8
332.88 K | 609.12 | 2105.8
335.61 K | 599.54 | 2262.5
337.83 K | 591.63 | 2369.9
340.19 K | 583.39 | 2489.5
343.01 K | 573.25 | 2639
